{"source": "patent US11166899B2", "about": "“Composition for external application containing a ceramide, a derivative thereof and an extract of Hibisci cortex” (AMOREPACIFIC CORPORATION, priority 2017, dated 2021)"}
{"target": "T1, PPARα (Homo sapiens, UniProt Q07869)", "T1 construct": "expressed in transfected cells; host or cells: HaCaT (human keratinocyte cell line), transiently transfected", "T1 sequence (Q07869 1-468)": "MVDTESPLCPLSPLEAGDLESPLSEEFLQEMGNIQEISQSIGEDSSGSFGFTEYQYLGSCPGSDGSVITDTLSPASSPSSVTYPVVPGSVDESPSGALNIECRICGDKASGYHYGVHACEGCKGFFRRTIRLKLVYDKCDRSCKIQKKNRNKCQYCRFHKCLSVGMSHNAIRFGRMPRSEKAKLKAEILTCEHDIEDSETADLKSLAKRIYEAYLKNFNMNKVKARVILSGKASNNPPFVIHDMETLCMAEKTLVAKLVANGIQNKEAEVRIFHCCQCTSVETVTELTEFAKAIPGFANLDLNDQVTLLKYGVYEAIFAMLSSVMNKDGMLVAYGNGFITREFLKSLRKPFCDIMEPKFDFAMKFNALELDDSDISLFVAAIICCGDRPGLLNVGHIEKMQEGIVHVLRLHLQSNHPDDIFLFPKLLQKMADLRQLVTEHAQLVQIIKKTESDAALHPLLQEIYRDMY", "test": "PPARα activation of single ceramide derivatives, PPRE-luciferase reporter in transfected HaCaT cells (Test Example 1)", "type": "cell-based", "conditions": "10 ppm, 24 hours, HaCaT transfected with PPRE reporter and PPARα plasmids; DMSO control = 100", "source_text": "(§1) HaCaT, which is a human keratinocyte cell line, was subcultured in DMEM medium containing 10% fetal bovine serum, which is a phenol red-free medium, in order to eliminate the effect caused by the phenol red's estrogen. The following plasmids were used: a plasmid having PPARα, PPARβ/δ and PPARγ genes downstream of a universal promoter which is expressed in general culture conditions; a plasmid having a PPARs response element (“PPRE”) as a promoter, which is activated by binding with ligand-bound PPARs, and a firefly luciferase gene serving as a reporter downstream of the promoter; and a reference plasmid having a β-galactosidase gene bound to a universal promoter.\n(§2) HaCaT cells were seeded into a 24-well plate at a density of 5×10^4 cells/well, cultured for 24 hours, and then transiently transfected with the plasmid genes. After 24 hours of culture, the cells were washed with phosphate buffered saline (PBS), and then treated with the compounds prepared in Reference Examples 2-1 to 2-4, and Reference Examples 3-11 to 3-15 at a concentration of 10 ppm. As a positive control group, the cells were treated with a previously-known PPARs ligand (PPARα ligand Wy-14643) at a concentration of 10 μM. As a negative control group, a group treated with DMSO used to dissolve the samples was used. After 24 hours of culture, the cells were washed with PBS, harvested, and measured for luciferase activity.\n(§3) Results obtained by transfecting the HaCaT cell line with the PPRE promoter reporter plasmid and the PPARα expression plasmid, followed by treating the transfected cells with drugs, and measuring the luciferase activity of the cells", "units": {"Relative to Control Group (%) (luciferase activity)": "%"}}
{"smiles": "CCCCCCCCCCCCCCCC(=O)N(CCO)CC(O)CN(CCO)C(=O)CCCCCCCCCCCCCCC", "note": "[Reference Example 2-1, 1,3-bis(N-(2-hydroxyethyl)-palmitoylamino)-2-hydroxypropane]", "Relative to Control Group (%) (luciferase activity)": 263}
{"smiles": "CCCCCCCCCCCC(=O)N(CCO)CC(O)CN(CCO)C(=O)CCCCCCCCCCC", "note": "[Reference Example 2-2, 1,3-Bis(N-(2-Hydroxyethyl)-Lauroylamino)-2-Hydroxypropane]", "Relative to Control Group (%) (luciferase activity)": 270}
{"smiles": "CCCCCCCC/C=C\\CCCCCCCC(=O)N(CCO)CC(O)CN(CCO)C(=O)CCCCCCC/C=C\\CCCCCCCC", "note": "[Reference Example 2-3, 1,3-bis(N-(2-hydroxyethyl)-oleoylamino)-2-hydroxypropane]", "Relative to Control Group (%) (luciferase activity)": 255}
{"smiles": "CCCCCCCCCCCCCCCC(=O)N(CCO)CC(O)CNCCO", "note": "(stereo not shown) [Reference Example 2-4, N,N′-bis(2-hydroxyethyl)-N-palmitoyl-N′-1,3-diamino-2-hydroxypropane]", "Relative to Control Group (%) (luciferase activity)": 260}
{"smiles": "CCCCCCCCCCCCCCCCN(CC(C)OP(=O)([O-])[O-])C(=O)CCCCCCCCCCCCCCC.[Na+].[Na+]", "note": "(stereo not shown) [Reference Example 3-11, (N-hexadecyl-N-palmitoyl)-1-aminopropane-2-sodium phosphate]", "Relative to Control Group (%) (luciferase activity)": 272}
{"smiles": "CCCCCCCCCCCCCCCCN(CC(C)(C)OP(=O)([O-])[O-])C(=O)CCCCCCCCCCCCCCC.[Na+].[Na+]", "note": "[Reference Example 3-12, (N-Hexadecyl-N-Palmitoyl)-1-Amino-2-Methylpropane-2-Sodium Phosphate]", "Relative to Control Group (%) (luciferase activity)": 270}
{"smiles": "CCCCCCCCCCCCCCCCN(CCOCCOP(=O)([O-])O)C(=O)CCCCCCCCCCCCCCC.[Na+]", "note": "[Reference Example 3-13, (N-Hexadecyl-N-Palmitoyl)-1-Amino-2-Ethoxyethane-2-Sodium Phosphate]", "Relative to Control Group (%) (luciferase activity)": 259}
{"smiles": "CCCCCCCC/C=C\\CCCCCCCCN(CC(C)OS(=O)(=O)[O-])C(=O)CCCCCCCCCCCCCCC.[Na+]", "note": "(stereo not shown) [Reference Example 3-14, (N-oleyl-N-palmitoyl)-1-aminopropane-2-sodium sulfate]", "Relative to Control Group (%) (luciferase activity)": 278}
{"smiles": "CCCCCCCC/C=C\\CCCCCCCCN(CC(C)(C)OS(=O)(=O)[O-])C(=O)CCCCCCCCCCCCCCC.[Na+]", "note": "[Reference Example 3-15, (N-Oleyl-N-Palmitoyl)-1-Amino-2-Methylpropane-2-Sodium Sulfate]", "Relative to Control Group (%) (luciferase activity)": 269}
{"target": "T1, PPARα", "test": "PPARα activation of single ceramide derivatives, PPRE-luciferase reporter in transfected HaCaT cells (Test Example 1)", "type": "cell-based", "conditions": "positive control, 10 μM, 24 hours, HaCaT; DMSO control = 100", "source_text": "as §1, §2, §3", "units": {"Relative to Control Group (%) (luciferase activity)": "%"}}
{"smiles": "Cc1cccc(Nc2cc(Cl)nc(SCC(=O)O)n2)c1C", "note": "[Wy-14643, reference compound]", "Relative to Control Group (%) (luciferase activity)": 291}
